Values joined by “and” are separate entries in the source; they are usually repeats but may differ in a detail not shown here. Identical values can stand only once. Like-named read-outs stand apart in the source and are kept apart here.
What was measured:
[1] = tested on: ECLC5 luciferase cells implanted intracranially; assay: Intracranial efficacy study; assay type: in vivo, NSG mice; conditions: for Luminescence Data: Fig. 8e ECLC5 intracranial, 50 mg/kg BID, individual animals
[2] = tested on: Ba/F3 cells expressing KIF5B–RET^V804L; assay: Growth inhibition assay in Ba/F3 cells (CellTiter-Glo, 72 h); assay type: cell-based; conditions: replicate sets
LUAD-0057BS1 cells = assay: Growth inhibition (alamarBlue, 96 h); assay type: cell-based, human; conditions: for raw viability signal (Source Data Fig. 3b-c): LUAD-0057BS1, replicate sets
[3] = tested on: Ba/F3 cells expressing KIF5B–RET^G810C; assay: Growth inhibition assay in Ba/F3 cells (CellTiter-Glo, 72 h); assay type: cell-based; conditions: Ba/3-KIF5B-RET-G810C; replicate Sets 1-3
MMNK1 cholangiocytes = assay: Growth inhibition (alamarBlue, 96 h); assay type: cell-based, human; conditions: MMNK, replicates
[4] = tested on: Ba/F3 cells expressing KIF5B–RET^WT; assay: Growth inhibition assay in Ba/F3 cells (CellTiter-Glo, 72 h); assay type: cell-based
LUAD-0087AS2 PDX = assay: PDX efficacy study; conditions: for Change in tumor volume (% from base line): Fig. 6a LUAD-0087AS2; for Change in tumor volume (% from base line) / Tumor volume: individual animals; for Area Under Curve Mean: Fig. 6a LUAD-0087AS2 tumor growth; for Tumor volume: LUAD-0087AS2

## COCc1ccc(NC(=O)c2c(C#CCN3CCOCC3)n(C3(C)CC3)c3ncnc(N)c23)cc1 [Vepafestinib, 4-amino-N-[4-(methoxymethyl)phenyl]-7-(1-methylcyclopropyl)-6-[3-(morpholin-4-yl)prop-1-yn-1-yl]-7H-pyrrolo[2,3-d]pyrimidine-5-carboxamide]
[1]; 50 mg per kg BID, all animals alive
  survival time: > 139 d of treatment
[1]; treatment day 0 (=1)
  Luminescence Data: 1
[1]; treatment day 5, day 0 = 1, 50 mg/kg
  Luminescence Data: 0.4116 and 0.5677 and 0.6168 and 0.1116 and 0.9191 and 0.3141
[1]; treatment day 12, day 0 = 1, 50 mg/kg
  Luminescence Data: 0.3041 and 0.6223 and 0.3951 and 0.05187 and 0.856 and 0.4174
[1]; treatment day 18, day 0 = 1, 50 mg/kg
  Luminescence Data: 0.3959 and 0.7406 and 0.6024 and 0.03931 and 0.9545 and 0.2802
[1]; treatment day 26, day 0 = 1, 50 mg/kg
  Luminescence Data: 0.3977 and 0.5749 and 0.4469 and 0.01537 and 0.7719 and 0.2517
[1]; treatment day 33, day 0 = 1, 50 mg/kg
  Luminescence Data: 0.4164 and 0.7522 and 0.6219 and 0.01856 and 1.136 and 0.285
[1]; treatment day 40, day 0 = 1, 50 mg/kg
  Luminescence Data: 0.3201 and 0.5375 and 0.4135 and 0.01963 and 0.792 and 0.1799
[1]; treatment day 46, day 0 = 1, 50 mg/kg
  Luminescence Data: 0.3305 and 0.5368 and 0.3264 and 0.008566 and 0.9694 and 0.2044
[1]; treatment day 55, day 0 = 1, 50 mg/kg
  Luminescence Data: 0.516 and 0.834 and 0.6149 and 0.01696 and 1.167 and 0.3646
[1]; treatment day 61, day 0 = 1, 50 mg/kg
  Luminescence Data: 0.3872 and 0.6582 and 0.5284 and 0.01449 and 1.158 and 0.246
[1]; treatment day 68, day 0 = 1, 50 mg/kg
  Luminescence Data: 0.3804 and 0.71 and 0.4932 and 0.01469 and 1.521 and 0.2588
[1]; treatment day 75, day 0 = 1, 50 mg/kg
  Luminescence Data: 0.2695 and 0.603 and 0.5415 and 0.02346 and 1.537 and 0.2239
[1]; treatment day 82, day 0 = 1, 50 mg/kg
  Luminescence Data: 0.477 and 0.7647 and 0.421 and 0.02545 and 2.278 and 0.2761
[1]; treatment day 89, day 0 = 1, 50 mg/kg
  Luminescence Data: 0.4292 and 0.858 and 0.6342 and 0.04079 and 3.665 and 0.3289
[1]; treatment day 96, day 0 = 1, 50 mg/kg
  Luminescence Data: 0.3189 and 0.6963 and 0.5402 and 0.01338 and 5.016 and 0.1926
[1]; treatment day 103, day 0 = 1, 50 mg/kg
  Luminescence Data: 0.4201 and 0.6542 and 0.7489 and 0.02359 and 6.915 and 0.2847
[1]; treatment day 110, day 0 = 1, 50 mg/kg
  Luminescence Data: 0.2991 and 0.6305 and 0.5409 and 0.02851
[2]; Ba/3-KIF5B-RET-V804L
  GI50: 21.4 nM
[2]; Mus musculus, BaF3, Ba/3-KIF5B-RET-V804L
  GI50: 25.9 nM
LUAD-0057BS1 cells; Homo sapiens, 96 h, read-out: IC50 for Inhibition of Growth (95% CI)
  IC50: 60 nM
LUAD-0057BS1 cells; 0.01 nM
  raw viability signal (Source Data Fig. 3b-c): 17419.2 and 15925.4 and 18689.8 and 23015.1
LUAD-0057BS1 cells; 0.1 nM
  raw viability signal (Source Data Fig. 3b-c): 17721.3 and 15866.4 and 19298.6 and 21993.3
LUAD-0057BS1 cells; 1 nM
  raw viability signal (Source Data Fig. 3b-c): 17137.9 and 16657.5 and 19117.5 and 21130.9
LUAD-0057BS1 cells; 10 nM
  raw viability signal (Source Data Fig. 3b-c): 14331 and 15273.4 and 17077.7 and 19439.8
LUAD-0057BS1 cells; 100 nM
  raw viability signal (Source Data Fig. 3b-c): 7158.2 and 6135.51 and 7993.83 and 7600.63
LUAD-0057BS1 cells; 1000 nM
  raw viability signal (Source Data Fig. 3b-c): 3333.45 and 1678.22 and 2095.91 and 2070.83
LUAD-0057BS1 cells; 10000 nM
  raw viability signal (Source Data Fig. 3b-c): 2605.9 and 881.24 and 1045.29 and 1424.56
[3]
  GI50: 14.5 nM
MMNK1 cholangiocytes; 0.01 nM
  raw viability signal (Source Data Fig. 3b-c): 15390 and 15865.6
MMNK1 cholangiocytes; 0.1 nM
  raw viability signal (Source Data Fig. 3b-c): 14815.4 and 16483.3
MMNK1 cholangiocytes; 1 nM
  raw viability signal (Source Data Fig. 3b-c): 13973.1 and 15595
MMNK1 cholangiocytes; 10 nM
  raw viability signal (Source Data Fig. 3b-c): 13948.4 and 14647.6
MMNK1 cholangiocytes; 100 nM
  raw viability signal (Source Data Fig. 3b-c): 13576.5 and 14248.6
MMNK1 cholangiocytes; 1000 nM
  raw viability signal (Source Data Fig. 3b-c): 9712.9 and 10190.9
MMNK1 cholangiocytes; 10000 nM
  raw viability signal (Source Data Fig. 3b-c): 13883.8 and 13507.1
[4]; Ba/3-KIF5B-RET, replicate sets
  GI50: 8.96 nM and 6.78 nM
[4]; Mus musculus, BaF3, 72 h, read-out: GI50 value (Mean ± SD), Ba/F3-KIF5B::RET, CellTiter-Glo, 72 h
  GI50: 8.27 ± 1.29 nM
[4]; Mus musculus, BaF3, Ba/3-KIF5B-RET, replicate sets
  GI50: 9.06 nM
LUAD-0087AS2 PDX; 50 mg/kg BID
  Change in tumor volume (% from base line): 87.879% and 58.129% and 44.45% and -5.144% and -25.229%
  Area Under Curve Mean: 607.7
LUAD-0087AS2 PDX; 100 mg/kg QD
  Change in tumor volume (% from base line): 17.228% and 8.714% and 8.637% and 6.644% and -4.481%
  Area Under Curve Mean: -475
LUAD-0087AS2 PDX; 50 mg/kg BID, treatment day 14
  Tumor volume: 176.99 and 151.71 and 143.39 and 141.55 and 122.52
LUAD-0087AS2 PDX; 50 mg/kg BID, treatment day 17
  Tumor volume: 184.47 and 160.85 and 154.42 and 148.22 and 128.59
LUAD-0087AS2 PDX; 50 mg/kg BID, treatment day 21
  Tumor volume: 153.78 and 172.55 and 161.49 and 152.64 and 130.54
LUAD-0087AS2 PDX; 50 mg/kg BID, treatment day 24
  Tumor volume: 80.7 and 118.01 and 87.03 and 107.44 and 78.99
LUAD-0087AS2 PDX; 50 mg/kg BID, treatment day 29
  Tumor volume: 140.89 (2×) and 167.28 and 145.47 and 91.61
LUAD-0087AS2 PDX; 50 mg/kg BID, treatment day 32
  Tumor volume: 98.2 and 131.95 and 113.98 and 102.07 and 83.83
LUAD-0087AS2 PDX; 50 mg/kg BID, treatment day 35
  Tumor volume: 98.2 and 165.14 and 137.6 and 146.01 and 86.78
LUAD-0087AS2 PDX; 50 mg/kg BID, treatment day 38
  Tumor volume: 108.88 and 165.14 and 151.71 and 155.09 and 86.78
LUAD-0087AS2 PDX; 50 mg/kg BID, treatment day 42
  Tumor volume: 118.01 and 213.8 and 176.98 and 176.74 and 91.61

Reference: article PMC10518257 (Nature Cancer, 2023)
